Publication PMC7558026, “Exploring and applying the substrate promiscuity of a C-glycosyltransferase in the chemo-enzymatic synthesis of bioactive C-glycosides” (Nature Communications, 2020)
Where a chain is given by its changes, count along the chain named. “And” between values parts separate entries of the source, which are not always exact repeats. Identical values can stand only once.

Assays:
SGLT2 = target: T1, SGLT2 (Homo sapiens, UniProt P31639); assay: 1-NBDG uptake in HEK293 cells stably expressing SGLT2; format: cell-based; conditions: HEK293, compound at 10 μM; triplicate; read-out: SGLT2 inhibitory rates
T1 construct: Human full-length SGLT2 cDNA (NM_003041.3) was synthesized; expressed in transfected cells; host or cells: HEK293, retroviral transduction with pMSCVpuro-SGLT2, puromycin selected
T1 sequence (P31639 1-672): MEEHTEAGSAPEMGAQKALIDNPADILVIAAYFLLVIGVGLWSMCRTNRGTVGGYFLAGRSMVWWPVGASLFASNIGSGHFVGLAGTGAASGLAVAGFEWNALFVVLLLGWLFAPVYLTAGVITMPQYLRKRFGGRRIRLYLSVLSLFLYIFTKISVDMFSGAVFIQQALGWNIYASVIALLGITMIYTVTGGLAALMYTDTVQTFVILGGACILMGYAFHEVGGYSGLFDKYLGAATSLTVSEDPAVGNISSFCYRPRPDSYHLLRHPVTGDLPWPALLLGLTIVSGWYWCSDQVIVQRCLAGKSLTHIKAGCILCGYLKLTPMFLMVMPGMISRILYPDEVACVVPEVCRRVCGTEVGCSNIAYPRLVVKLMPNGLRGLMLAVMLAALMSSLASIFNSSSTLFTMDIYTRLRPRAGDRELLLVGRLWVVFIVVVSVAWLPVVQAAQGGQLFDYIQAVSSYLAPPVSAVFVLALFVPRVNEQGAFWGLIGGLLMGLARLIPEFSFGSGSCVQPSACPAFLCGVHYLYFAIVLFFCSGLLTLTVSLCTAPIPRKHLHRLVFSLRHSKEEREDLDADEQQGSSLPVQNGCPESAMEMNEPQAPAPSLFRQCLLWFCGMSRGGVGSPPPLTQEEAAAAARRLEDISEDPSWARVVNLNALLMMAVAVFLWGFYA

AbCGT = AbCGT (Aloe vera, UniProt A0A7G9P699); assay: Glycosyltransferase activity assay, purified AbCGT (wild type) with aglycon acceptors and UDP-Glc; format: biochemical, Aloe barbadensis; conditions: for conversion rates, O,N,S-glycosylation / conversion rates, di-C-glycosylation / conversion rates, mono-C-glycosylation: aglycon acceptor with UDP-Glc, pH 7.4, 30 °C, up to 12 h, Reaction-1 to -3
Chain of AbCGT (A0A7G9P699 entry or part of it): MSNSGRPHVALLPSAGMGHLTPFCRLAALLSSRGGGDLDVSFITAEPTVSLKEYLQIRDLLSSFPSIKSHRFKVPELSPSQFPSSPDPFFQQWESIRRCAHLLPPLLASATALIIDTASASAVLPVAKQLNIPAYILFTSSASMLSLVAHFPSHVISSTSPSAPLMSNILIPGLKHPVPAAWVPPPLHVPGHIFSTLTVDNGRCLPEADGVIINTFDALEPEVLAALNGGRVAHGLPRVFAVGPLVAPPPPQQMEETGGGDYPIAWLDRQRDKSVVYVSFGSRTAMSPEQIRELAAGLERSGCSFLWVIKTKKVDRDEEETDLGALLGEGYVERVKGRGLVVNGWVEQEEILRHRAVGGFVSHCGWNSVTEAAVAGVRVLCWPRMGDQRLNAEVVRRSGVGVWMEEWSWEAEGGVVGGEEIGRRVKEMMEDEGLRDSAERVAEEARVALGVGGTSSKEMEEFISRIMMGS
Experimental: Due to the instability of some acceptors in the buffer of pH 11.0, the reactions were performed under the physiological conditions (pH 7.4, 30 °C) to compare the catalytic activities of AbGT27 with different substrates under the same conditions. The reactions were performed at 30 °C for up to 12 h and terminated by the addition of 200 μL of ice-cold methanol. Subsequently, samples were centrifuged at 15,000 × g for 30 min to collect the supernatant, and aliquots were analyzed by HPLC-UV/ESIMS. […] The gradient programs were used for the analysis of the reactions (Supplementary Table 6). The conversion rates of the enzyme reactions were calculated from peak areas of glycosylated products and substrates as analyzed by HPLC. To facilitate inferential statistical analysis, three parallel assays were routinely performed; the means ± SD from triplicate analyses are reported here.

AbCGT V183E = target: T2, AbCGT V183E (Aloe vera, UniProt A0A7G9P699, V183E); assay: Glycosyltransferase activity of AbCGT variant V183E; format: biochemical, Aloe barbadensis
T2 sequence (A0A7G9P699 1-470 V183E): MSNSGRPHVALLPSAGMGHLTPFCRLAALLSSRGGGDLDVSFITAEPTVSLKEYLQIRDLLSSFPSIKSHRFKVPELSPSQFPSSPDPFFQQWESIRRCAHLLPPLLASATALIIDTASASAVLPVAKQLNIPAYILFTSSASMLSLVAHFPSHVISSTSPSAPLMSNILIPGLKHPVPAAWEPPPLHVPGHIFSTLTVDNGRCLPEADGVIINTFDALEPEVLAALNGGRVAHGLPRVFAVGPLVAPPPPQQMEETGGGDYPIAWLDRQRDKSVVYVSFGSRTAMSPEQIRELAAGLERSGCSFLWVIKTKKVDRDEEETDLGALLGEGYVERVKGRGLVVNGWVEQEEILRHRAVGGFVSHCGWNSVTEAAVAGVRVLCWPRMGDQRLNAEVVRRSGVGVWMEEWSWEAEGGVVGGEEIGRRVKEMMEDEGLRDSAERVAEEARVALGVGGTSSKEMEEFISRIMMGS
Experimental: (§1) The reaction mixture contained 0.5 mM sugar donors (1.0 mM for di-glycosylation), 0.25 mM aglycons, 50 mM Tris-HCl (pH 7.4), and 50‒100 μg of purified AbCGT in a final volume of 100 μL. Due to the instability of some acceptors in the buffer of pH 11.0, the reactions were performed under the physiological conditions (pH 7.4, 30 °C) to compare the catalytic activities of AbGT27 with different substrates under the same conditions. The reactions were performed at 30 °C for up to 12 h and terminated by the addition of 200 μL of ice-cold methanol. Subsequently, samples were centrifuged at 15,000 × g for 30 min to collect the supernatant, and aliquots were analyzed by HPLC-UV/ESIMS. HPLC analysis was performed on a Shiseido CAPCELL PAK C18 MG III column (250 mm × 4.6 mm I.D., 5 μm, Shiseido Co., Ltd., Japan) at a flow rate of 1 mL min^‒1. The mobile phase was a gradient elution of solvents A (0.1% formic acid aqueous solution) and B (methanol). The gradient programs were used for the analysis of the reactions (Supplementary Table 6). The conversion rates of the enzyme reactions were calculated from peak areas of glycosylated products and substrates as analyzed by HPLC. To facilitate inferential statistical analysis, three parallel assays were routinely performed; the means ± SD from triplicate analyses are reported here.
(§2) Site-saturation mutagenesis of AbCGT at residue 183 was performed by PCR using pET28a-AbCGT as a template and the corresponding degenerate primers, which are listed in Supplementary Table 5. PCR products were purified and transformed into Trans1-T1 (DE3) E. coli. The sequences of pET28a-AbCGT mutants were confirmed by sequencing, and transformed into Transetta (DE3) E. coli for heterologous expression following protein purification.

AbCGT V183D = target: T3, AbCGT V183D (Aloe vera, UniProt A0A7G9P699, V183D); assay: Glycosyltransferase activity of AbCGT variant V183D; format: biochemical, Aloe barbadensis
T3 sequence (A0A7G9P699 1-470 V183D): T2 sequence (A0A7G9P699 1-470 V183E) with E183D
Experimental: as §1, §2

O=C(CCc1ccc(O)cc1)c1c(O)cc(O)c(C2OC(CO)C(O)C(O)C2O)c1O [Compound 17b, phloretin-3′-C-β-D-galactoside]
inhibition at 10 µM (SGLT2): -3.1%

COc1ccc(CCc2ccc(O)c([C@@H]3O[C@H](CO)[C@@H](O)[C@H](O)[C@H]3O)c2O)cc1 [Compound 21a]
inhibition at 10 µM (SGLT2): 22.7%

O=C(CCc1ccc(O)cc1)c1c(O)cc(O)c(C2OCC(O)C(O)C2O)c1O [Compound 17c, phloretin-3′-C-β-D-xyloside]
inhibition at 10 µM (SGLT2): 1.7%

OCC1OC(c2c(O)cc(O)c(Cc3ccccc3)c2O)C(O)C(O)C1O (centres unmarked) [Compound 38a]
inhibition at 10 µM (SGLT2): 76.4%

OCC1OC(c2c(O)cc(O)c(CCc3ccc(Cl)cc3)c2O)C(O)C(O)C1O (centres unmarked) [Compound 54a]
inhibition at 10 µM (SGLT2): 62.5%

COc1ccc(CCc2ccc(O)cc2O)cc1 [Compound 21]
inhibition at 10 µM (SGLT2): 1.8% | conversion rates, O,N,S-glycosylation (AbCGT): 0% | conversion rates, di-C-glycosylation (AbCGT): 0% | conversion rates, mono-C-glycosylation (AbCGT): 100%

OCC1OC(c2c(O)cc(O)c(CCc3ccc(F)cc3)c2O)C(O)C(O)C1O (centres unmarked) [Compound 53a]
inhibition at 10 µM (SGLT2): 24.3%

CC(=O)c1cccc(O)c1 [Compound 2]
V183E/yield of C-glycoside(%) (AbCGT V183E; reaction-1): 0% | V183E/yield of O-glycoside(%) (AbCGT V183E; reaction-1): 0% | V183E/yield of C-glycoside(%) (AbCGT V183E; reaction-2): 0% | V183E/yield of O-glycoside(%) (AbCGT V183E; reaction-2): 0% | V183E/yield of C-glycoside(%) (AbCGT V183E; reaction-3): 0% | V183E/yield of O-glycoside(%) (AbCGT V183E; reaction-3): 0% | conversion rates, O,N,S-glycosylation (AbCGT): 71% and 72.2% and 73.1% | conversion rates, di-C-glycosylation (AbCGT): 0% | conversion rates, mono-C-glycosylation (AbCGT): 0% | WT/yield of C-glycoside(%) (AbCGT; reaction-1): 0% | WT/yield of O-glycoside(%) (AbCGT; reaction-1): 70.1% | WT/yield of C-glycoside(%) (AbCGT; reaction-2): 0% | WT/yield of O-glycoside(%) (AbCGT; reaction-2): 73.8% | WT/yield of C-glycoside(%) (AbCGT; reaction-3): 0% | WT/yield of O-glycoside(%) (AbCGT; reaction-3): 73% | V183D/yield of C-glycoside(%) (AbCGT V183D; reaction-1): 0% | V183D/yield of O-glycoside(%) (AbCGT V183D; reaction-1): 0% | V183D/yield of C-glycoside(%) (AbCGT V183D; reaction-2): 0% | V183D/yield of O-glycoside(%) (AbCGT V183D; reaction-2): 0% | V183D/yield of C-glycoside(%) (AbCGT V183D; reaction-3): 0% | V183D/yield of O-glycoside(%) (AbCGT V183D; reaction-3): 0%

COc1ccc(Cc2c(O)cc(O)c([C@@H]3O[C@H](CO)[C@@H](O)[C@H](O)[C@H]3O)c2O)cc1OC [Compound 20a]
inhibition at 10 µM (SGLT2): 13.6%

CC(=O)c1c(O)cc(C)cc1O [Compound 7]
V183E/yield of C-glycoside(%) (AbCGT V183E; reaction-1): 11.1% | V183E/yield of O-glycoside(%) (AbCGT V183E; reaction-1): 0% | V183E/yield of C-glycoside(%) (AbCGT V183E; reaction-2): 8.9% | V183E/yield of O-glycoside(%) (AbCGT V183E; reaction-2): 0% | V183E/yield of C-glycoside(%) (AbCGT V183E; reaction-3): 13.1% | V183E/yield of O-glycoside(%) (AbCGT V183E; reaction-3): 0% | conversion rates, O,N,S-glycosylation (AbCGT): 77% and 78.6% and 82.4% | conversion rates, di-C-glycosylation (AbCGT): 0% | conversion rates, mono-C-glycosylation (AbCGT): 13.9% and 12% and 15.9% | WT/yield of C-glycoside(%) (AbCGT; reaction-1): 15.2% | WT/yield of O-glycoside(%) (AbCGT; reaction-1): 77.6% | WT/yield of C-glycoside(%) (AbCGT; reaction-2): 14.1% | WT/yield of O-glycoside(%) (AbCGT; reaction-2): 78% | WT/yield of C-glycoside(%) (AbCGT; reaction-3): 13.5% | WT/yield of O-glycoside(%) (AbCGT; reaction-3): 81.4% | V183D/yield of C-glycoside(%) (AbCGT V183D; reaction-1): 8% | V183D/yield of O-glycoside(%) (AbCGT V183D; reaction-1): 0.8% | V183D/yield of C-glycoside(%) (AbCGT V183D; reaction-2): 7.2% | V183D/yield of O-glycoside(%) (AbCGT V183D; reaction-2): 1% | V183D/yield of C-glycoside(%) (AbCGT V183D; reaction-3): 7.2% | V183D/yield of O-glycoside(%) (AbCGT V183D; reaction-3): 1.3%
